We go through 34 molecules from patent US20230083973A1, “SUBSTITUTED CYCLOPROPYL-2,2'-BIP[…], ANALOGUES THEREOF, AND METHODS USING SAME” (priority 2019, published 2023).

The assay relates to HBsAg. As to the kind of experiment: HBsAg assay: inhibition of HBsAg in HepG2.2.15 cells (chemiluminescence immunoassay of supernatant). The class given is cell-based, hepatitis B virus. Conditions: HBsAg in supernatant at day 6 after exposure to compound, 0.5% DMSO. The method, then: Inhibition of HBsAg was determined in HepG2.2.15 cells. Cells were maintained in culture medium containing 10% fetal calf serum, […], Glutamine, penicillin/streptomycin. Cells were seeded in 96-well collagen-coated plate at a density of 30,000 cells/well. Serially diluted compounds were added to cells next day at the final DMSO concentration of 0.5%. Cells were incubated with compounds for 2-3 days, after which medium was removed. Fresh medium containing compounds was added to cells for additional 3-4 days. At day 6 after exposure of compounds, supernatant was collected, the HBsAg immunoassay (microplate-based chemiluminescence immunoassay kits, CLIA, Autobio Diagnosics Co., Zhengzhou, China, Catalog # CL0310-2) was used to determine the level of HBsAg according to manufactory instruction. Dose-response curves were generated and the EC50 value (effective concentrations that achieved 50% inhibitory effect) were determined using XLfit software. In addition, cells were seeded at a density of 5,000 cells/well for determination of cell viability in the presence and absence of compounds by using CellTiter-Glo reagent (Promega).
Table 1 illustrates EC50 values obtained by the HBsAg assay for selected compounds.

Setting [1] is: read-out: sAg EC50, HepG2.2.15 cells.
Where [2] appears, read: Hepatitis B virus, HepG2.2.15, 144 h, read-out: sAg EC50, HepG2.2.15 cells.

Like-named read-outs stand apart in the source and are kept apart here.

For `COc1c(Cl)ccc(C2CC2c2cnc(-c3ncccn3)nc2)c1F` (single isomer, unassigned) [Example 56, trans-5-(2-(4-Chloro-2-fluoro-3-methoxyphenyl)cyclopropyl)-2,2′-bipyrimidine], under setting [1], the half-maximal effective concentration (EC50) amounted to 0.47 µM.

Take `Fc1cc(C2CC2c2cnc(-c3ncccn3)nc2)cc(NC2CCCC2)c1F` (single isomer, unassigned) [Example 208, trans-5-(2-([2,2′-Bipyrimidin]-5-yl)cyclopropyl)-N-cyclopentyl-2,3-difluoroaniline]: the concentration for a half-maximal effect (EC50) under setting [1] came to 0.11 µM.

For the molecule `COc1cc(C2CC2c2cnc(-c3ncccn3)nc2)cc(N2CCCC2)c1F` (single isomer, unassigned) [Example 100, trans-5-(2-(4-Fluoro-3-methoxy-5-(pyrrolidin-1-yl)phenyl)cyclopropyl)-2,2′-bipyrimidine], under setting [1], the EC50 was determined as 0.061 µM.

For `CC(C)(C)S(=O)(=O)C1CN(c2cc([C@@H]3C[C@H]3c3cnc(-c4ncccn4)nc3)cc(F)c2F)C1` (relative stereo) [Example 211, trans-5-(2-(3-(3-(tert-Butylsulfonyl)azetidin-1-yl)-4,5-difluorophenyl)cyclopropyl)-2,2′-bipyrimidine], the concentration for a half-maximal effect (EC50) under setting [2] is 0.11 µM.

With `Fc1ccc(C2CC2c2cnc(-c3ncccn3)nc2)cc1N1CCC(F)(F)C1` (single isomer, unassigned) [Example 44, trans-5-(2-(3-(3,3-Difluoropyrrolidin-1-yl)-4-fluorophenyl)cyclopropyl)-2,2′-bipyrimidine], the EC50 under setting [1] came to 0.11 µM.

Turning to `O[C@H]1CCN(c2cc(C3CC3c3cnc(-c4ncccn4)nc3)cc(Cl)c2F)C1` (single isomer, unassigned) [Example 120], under setting [1], the concentration giving a half-maximal response (EC50) was determined as 0.099 µM.

`Fc1cc(C2CC2c2cnc(-c3ncccn3)nc2)cc(N2CCCC2)c1F` (single isomer, unassigned) [Example 93, trans-5-(2-(3,4-Difluoro-5-(pyrrolidin-1-yl)phenyl)cyclopropyl)-2,2′-bipyrimidine]: under setting [1], the concentration giving a half-maximal response (EC50) is 0.019 µM.

Regarding `Fc1cc(F)c2nc([C@@H]3C[C@H]3c3cnc(-c4ncccn4)nc3)sc2c1` (relative stereo) [Example 270, trans-2-(2-([2,2′-Bipyrimidin]-5-yl)cyclopropyl)-4,6-difluorobenzo[d]thiazole], the 50% effective concentration (EC50) under setting [2] came to 0.5 µM.

Consider `Fc1ccc(C2CC2c2cnc(-c3ncccn3)nc2)cc1OC(F)(F)F` (single isomer, unassigned) [Example 39, trans-5-(2-(4-Fluoro-3-(trifluoromethoxy)phenyl)cyclopropyl)-2,2′-bipyrimidine], for which the EC50 under setting [1] worked out at 2 µM.

As to `COCCCn1cc2c([C@@H]3C[C@H]3c3cnc(-c4ncccn4)nc3)ccc(F)c2n1` (relative stereo) [Example 277, trans-4-(2-([2,2′-Bipyrimidin]-5-yl)cyclopropyl)-7-fluoro-2-(3-methoxypropyl)-2H-indazole], the EC50 under setting [2] worked out at 0.03 µM.

As for `COCCOc1cc(C2CC2c2cnc(-c3ncccn3)nc2)ccc1F` (single isomer, unassigned) [Example 21, trans-5-(2-(4-Fluoro-3-(2-methoxyethoxy)phenyl)cyclopropyl)-2,2′-bipyrimidine], the 50% effective concentration (EC50) under setting [1] amounted to 0.49 µM.

Take `COC1CN(c2cc(C3CC3c3cnc(-c4ncccn4)nc3)ccc2F)C1` (single isomer, unassigned) [Example 48, trans-5-(2-(4-Fluoro-3-(3-methoxyazetidin-1-yl)phenyl)cyclopropyl)-2,2′-bipyrimidine]: the half-maximal effective concentration (EC50) under setting [1] stood at 0.032 µM.

`O[C@@H]1CCN(c2cc(C3CC3c3cnc(-c4ncccn4)nc3)cc(Cl)c2F)C1` (single isomer, unassigned) [Example 126]: the EC50 under setting [2] was found to be 0.12 µM.

In the case of `COc1cc(C2CC2c2cnc(-c3ncccn3)nc2C)ccc1F` (single isomer, unassigned) [Example 17, trans-5-(2-(4-Fluoro-3-methoxyphenyl)cyclopropyl)-4-methyl-2,2′-bipyrimidine], the EC50 under setting [2] was 0.65 µM.

In the case of `CN1CC[C@@H](Nc2cc(C3CC3c3cnc(-c4ncccn4)nc3)cc(F)c2F)C1` (single isomer, unassigned) [Example 230], the half-maximal effective concentration (EC50) under setting [1] worked out at 7 µM.

Turning to `CN(C)c1cc(C2CC2c2cnc(-c3ncccn3)nc2)ccc1F` (single isomer, unassigned) [Example 63, trans-5-(2-([2,2′-Bipyrimidin]-5-yl)cyclopropyl)-2-fluoro-N,N-dimethylaniline], under setting [1], the EC50 is 0.39 µM.

Consider `Fc1cc(C2CC2c2cnc(-c3ncccn3)nc2)cc(O[C@H]2CCOC2)c1F` (single isomer, unassigned) [Example 250], for which the EC50 under setting [1] was found to be 0.076 µM.

For the molecule `CCOC(=O)C1C(c2cnc(-c3ncccn3)nc2)C1c1cc(F)c(F)c(OC)c1` (stereo not drawn) [Example 263, trans-Ethyl 2-([2,2′-bipyrimidin]-5-yl)-3-(3,4-difluoro-5-methoxyphenyl)cyclopropane-1-carboxylate], the EC50 under setting [2] was determined as 12 µM.

For `Fc1cc([C@@H]2C[C@H]2c2cnc(-c3ncccn3)nc2)cc(-n2cccn2)c1F` (single isomer, unassigned) [Example 254, trans-5-(2-(3,4-Difluoro-5-(1H-pyrazol-1-yl)phenyl)cyclopropyl)-2,2′-bipyrimidine], the EC50 under setting [1] is 0.047 µM.

With `O[C@H]1CCN(c2cc(C3CC3c3cnc(-c4ncccn4)nc3)cc(Cl)c2F)C1` (single isomer, unassigned) [Example 121], the 50% effective concentration (EC50) under setting [1] is 0.011 µM.

With `COc1cc(C2CC2c2cnc(-c3ncccn3)nc2C2CCCCC2)ccc1F` (single isomer, unassigned) [Example 79, trans-4-Cyclohexyl-5-(2-(4-fluoro-3-methoxyphenyl)cyclopropyl)-2,2′-bipyrimidine], the EC50 under setting [1] stood at 0.22 µM.

For `COc1cc([C@@H]2C[C@H]2c2cnc(-c3ccccn3)nc2)cc(OC)c1OC` (relative stereo) [Example 176, trans-2-(Pyridin-2-yl)-5-(2-(3,4,5-trimethoxyphenyl)cyclopropyl)pyrimidine], the concentration giving a half-maximal response (EC50) under setting [2] came out at 2 µM.

Regarding `Fc1ccc(C2CC2c2cnc(-c3ncccn3)nc2)cc1OCC1CC1` (single isomer, unassigned) [Example 25, trans-5-(2-(3-(Cyclopropylmethoxy)-4-fluorophenyl)cyclopropyl)-2,2′-bipyrimidine], under setting [1], the EC50 was found to be 0.27 µM.

With `Fc1cc(C2CC2c2cnc(-c3ncccn3)nc2)cc(-n2ccnc2)c1F` (single isomer, unassigned) [Example 181, trans-5-(2-(3,4-Difluoro-5-(1H-imidazol-1-yl)phenyl)cyclopropyl)-2,2′-bipyrimidine], the half-maximal effective concentration (EC50) under setting [1] was 0.39 µM.

For the molecule `CO[C@H]1CCN(c2cc(C3CC3c3cnc(-c4ncccn4)nc3)ccc2F)C1` (single isomer, unassigned) [Example 68], the EC50 under setting [1] amounted to 0.085 µM.

As to `COc1cc([C@@H]2C[C@H]2c2cnc(-c3ncccn3)nc2)cc(C(F)(F)F)c1` (relative stereo) [Example 163, trans-5-(2-(3-Methoxy-5-(trifluoromethyl)phenyl)cyclopropyl)-2,2′-bipyrimidine], the concentration giving a half-maximal response (EC50) under setting [2] is 0.14 µM.

On to `Fc1ccc(C2CC2c2cnc(-c3ncccn3)nc2)cc1OCC(F)F` (single isomer, unassigned) [Example 27, trans-5-(2-(3-(2,2-Difluoroethoxy)-4-fluorophenyl)cyclopropyl)-2,2′-bipyrimidine], for which the EC50 under setting [1] was 0.63 µM.

Regarding `COc1cc(C2CC2c2cnc(-c3ncccn3)nc2)cc(N2CCCC2)c1F` (single isomer, unassigned) [Example 101, trans-5-(2-(4-Fluoro-3-methoxy-5-(pyrrolidin-1-yl)phenyl)cyclopropyl)-2,2′-bipyrimidine], the EC50 under setting [1] stood at 0.8 µM.

Turning to `COc1ccc(C2CC2c2cnc(-c3ncccn3)nc2)cc1F` (single isomer, unassigned) [Example 13, trans-5-(2-(3-Fluoro-4-methoxyphenyl)cyclopropyl)-2,2′-bipyrimidine], under setting [1], the concentration for a half-maximal effect (EC50) worked out at 0.082 µM.

As to `COc1cc(C2CC2c2cnc(-c3ncccn3)nc2-c2ccc3nc(C)sc3c2)ccc1F` (single isomer, unassigned) [Example 141, trans-6-(5-(2-(4-Fluoro-3-methoxyphenyl)cyclopropyl)-[2,2′-bipyrimidin]-4-yl)-2-methylbenzo[d]thiazole], under setting [1], the concentration for a half-maximal effect (EC50) came out at 1.2 µM.

In the case of `CS(=O)(=O)N1CCN(c2cc(C3CC3c3cnc(-c4ncccn4)nc3)ccc2F)CC1` (single isomer, unassigned) [Example 41, trans-5-(2-(4-Fluoro-3-(4-(methylsulfonyl)piperazin-1-yl)phenyl)cyclopropyl)-2,2′-bipyrimidine], the half-maximal effective concentration (EC50) under setting [1] is 4 µM.

Take `Fc1ccc(C2CC2c2cnc(-c3ncccn3)nc2)cc1F` (single isomer, unassigned) [Example 14, trans-5-(2-(3,4-Difluorophenyl)cyclopropyl)-2,2′-bipyrimidine]: under setting [1], the EC50 is 1 µM.

As for `COc1cc([C@@H]2C[C@H]2c2cnc(-c3ncccn3)nc2)ccc1OC(F)(F)F` (relative stereo) [Example 152, trans-5-(2-(3-Methoxy-4-(trifluoromethoxy)phenyl)cyclopropyl)-2,2′-bipyrimidine], under setting [2], the EC50 is 0.7 µM.

As to `COc1cc(C2CC2c2cnc(-c3ncccn3)nc2OC)ccc1F` (single isomer, unassigned) [Example 81, trans-5-(2-(4-Fluoro-3-methoxyphenyl)cyclopropyl)-4-methoxy-2,2′-bipyrimidine], the EC50 under setting [1] is 0.23 µM.
